# Experiments:
# Test in all cases: relative viability (nuclei count vs DMSO), 5 days (fraction); higher = more cells survive
# [1] = compound: CN(C)C[C@@H]1CCn2cc(c3ccccc32)C2=C(C(=O)NC2=O)c2cn(c3ccccc23)CCO1 [Ruboxistaurin]
# Summary of the method: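 Viability was read as treated-well nuclei divided by vehicle-well nuclei, using the median across plates. Lung cancer cell lines in 1536-well plates were kept overnight at 37 °C, pinned with five √10-spaced library-drug doses, and after 5 days were Hoechst-stained, imaged at 4× and counted in MetaXpress. Plates passed only with control CV below 25% and at least one doubling.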
# [2] = compound: CN(C)C[C@@H]1CCn2cc(c3ccccc32)C2=C(C(=O)NC2=O)c2cn(c3ccccc23)CCO1 [Ruboxistaurin] + Cc1nc(NC(=O)N2CCC[C@H]2C(N)=O)sc1-c1ccnc(C(C)(C)C(F)(F)F)c1 [Alpelisib] (partner 2 µM)
# Summary of the method: (§1)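 Five library-drug doses in √10 steps were combined with a fixed anchor-drug dose, or a single drug was given alone, by pin tool to lung cancer cell lines in 1536-well plates the day after seeding. Nuclei were stained and counted after 5 days. Relative viability is the nuclei count in treated wells over that in vehicle wells, taken as the median of duplicate plates.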
# [3] = compound: CN(C)C[C@@H]1CCn2cc(c3ccccc32)C2=C(C(=O)NC2=O)c2cn(c3ccccc23)CCO1 [Ruboxistaurin] + O=C(c1cc(Cc2n[nH]c(=O)c3ccccc23)ccc1F)N1CCN(C(=O)C2CC2)CC1 [Olaparib] (partner 8 µM)
# Summary of the method: as §1
# [4] = compound: CN(C)C[C@@H]1CCn2cc(c3ccccc32)C2=C(C(=O)NC2=O)c2cn(c3ccccc23)CCO1 [Ruboxistaurin] + CS(=O)(=O)CCNCc1ccc(-c2ccc3ncnc(Nc4ccc(OCc5cccc(F)c5)c(Cl)c4)c3c2)o1 [Lapatinib] (partner 2 µM)
# Summary of the method: as §1
# [5] = compound: CN(C)C[C@@H]1CCn2cc(c3ccccc32)C2=C(C(=O)NC2=O)c2cn(c3ccccc23)CCO1 [Ruboxistaurin] + CS(=O)(=O)N1CCN(Cc2cc3nc(-c4cccc5[nH]ncc45)nc(N4CCOCC4)c3s2)CC1 [Pictilisib] (partner 1 µM)
# Summary of the method: as §1
# [6] = compound: CN(C)C[C@@H]1CCn2cc(c3ccccc32)C2=C(C(=O)NC2=O)c2cn(c3ccccc23)CCO1 [Ruboxistaurin] + C[C@]1(O)C[C@@H](c2nc(-c3ccc4ccc(-c5ccccc5)nc4c3)c3c(N)nccn32)C1 [Linsitinib] (partner 1 µM)
# Summary of the method: as §1
# [7] = compound: CN(C)C[C@@H]1CCn2cc(c3ccccc32)C2=C(C(=O)NC2=O)c2cn(c3ccccc23)CCO1 [Ruboxistaurin] + COc1cc2c(Oc3ccc(NC(=O)C4(C(=O)Nc5ccc(F)cc5)CC4)cc3F)ccnc2cc1OCCCN1CCOCC1 [Foretinib] (partner 0.25 µM)
# Summary of the method: as §1
# [8] = compound: CN(C)C[C@@H]1CCn2cc(c3ccccc32)C2=C(C(=O)NC2=O)c2cn(c3ccccc23)CCO1 [Ruboxistaurin] + C[C@@H](Oc1cc(-c2cnn(C3CCNCC3)c2)cnc1N)c1c(Cl)ccc(F)c1Cl [Crizotinib] (partner 1 µM)
# Summary of the method: as §1
# [9] = compound: CN(C)C[C@@H]1CCn2cc(c3ccccc32)C2=C(C(=O)NC2=O)c2cn(c3ccccc23)CCO1 [Ruboxistaurin] + CC1(C)CCC(c2ccc(Cl)cc2)=C(CN2CCN(c3ccc(C(=O)NS(=O)(=O)c4ccc(N[C@H](CCN5CCOCC5)CSc5ccccc5)c(S(=O)(=O)C(F)(F)F)c4)cc3)CC2)C1 [Navitoclax] (partner 0.5 µM)
# Summary of the method: as §1
# [10] = compound: CN(C)C[C@@H]1CCn2cc(c3ccccc32)C2=C(C(=O)NC2=O)c2cn(c3ccccc23)CCO1 [Ruboxistaurin] + CC(C)C[C@H](NC(=O)[C@H](Cc1ccccc1)NC(=O)c1cnccn1)B(O)O [Bortezomib] (partner 0.002 µM)
# Summary of the method: as §1
# [11] = compound: CN(C)C[C@@H]1CCn2cc(c3ccccc32)C2=C(C(=O)NC2=O)c2cn(c3ccccc23)CCO1 [Ruboxistaurin] + COc1cccc2cc(-c3nc([C@H]4CC[C@H](C(=O)O)CC4)n4ncnc(N)c34)[nH]c12 [OSI-027] (partner 0.5 µM)
# Summary of the method: as §1
# [12] = compound: CN(C)C[C@@H]1CCn2cc(c3ccccc32)C2=C(C(=O)NC2=O)c2cn(c3ccccc23)CCO1 [Ruboxistaurin] + Nc1nc2[nH]cc(CCc3ccc(C(=O)N[C@@H](CCC(=O)O)C(=O)O)cc3)c2c(=O)[nH]1 [Pemetrexed] (partner 0.2 µM)
# Summary of the method: as §1
# [13] = compound: CN(C)C[C@@H]1CCn2cc(c3ccccc32)C2=C(C(=O)NC2=O)c2cn(c3ccccc23)CCO1 [Ruboxistaurin] + CCNC(=O)c1noc(-c2cc(C(C)C)c(O)cc2O)c1-c1ccc(CN2CCOCC2)cc1 [Luminespib] (partner 0.01 µM)
# Summary of the method: as §1
# [14] = compound: CN(C)C[C@@H]1CCn2cc(c3ccccc32)C2=C(C(=O)NC2=O)c2cn(c3ccccc23)CCO1 [Ruboxistaurin] + N=C(N)NC(=N)NCCc1ccccc1 [Phenformin] (partner 250 µM)
# Summary of the method: as §1
# [15] = compound: CN(C)C[C@@H]1CCn2cc(c3ccccc32)C2=C(C(=O)NC2=O)c2cn(c3ccccc23)CCO1 [Ruboxistaurin] + Cc1nc(Nc2ncc(C(=O)Nc3c(C)cccc3Cl)s2)cc(N2CCN(CCO)CC2)n1 [Dasatinib] (partner 0.075 µM)
# Summary of the method: as §1
# [16] = compound: CN(C)C[C@@H]1CCn2cc(c3ccccc32)C2=C(C(=O)NC2=O)c2cn(c3ccccc23)CCO1 [Ruboxistaurin] + Cc1cc(Nc2cc(N3CCN(C)CC3)nc(Sc3ccc(NC(=O)C4CC4)cc3)n2)n[nH]1 [Tozasertib] (partner 0.1 µM)
# Summary of the method: as §1
cell line,measurement,setting,value
NCI-H1299,relative viability,[1]; 0.08 µM,1.06
same,relative viability,[1]; 0.8 µM,1
same,relative viability,[1]; 2.53 µM,1.01
same,relative viability,[1]; 8 µM,1.09
same,relative viability,[2]; first compound 0.08 µM,1.08
same,relative viability,[2]; first compound 0.8 µM,1.07
same,relative viability,[2]; first compound 2.53 µM,1.07
same,relative viability,[2]; first compound 8 µM,1.16
same,relative viability,[3]; first compound 0.08 µM,0.95
same,relative viability,[3]; first compound 0.8 µM,1.02
same,relative viability,[3]; first compound 2.53 µM,0.976
same,relative viability,[3]; first compound 8 µM,1.08
same,relative viability,[4]; first compound 0.08 µM,0.997
same,relative viability,[4]; first compound 0.8 µM,0.931
same,relative viability,[4]; first compound 2.53 µM,0.993
same,relative viability,[4]; first compound 8 µM,0.962
same,relative viability,[5]; first compound 0.08 µM,0.841
same,relative viability,[5]; first compound 0.8 µM,0.51
same,relative viability,[5]; first compound 2.53 µM,0.731
same,relative viability,[5]; first compound 8 µM,0.45
same,relative viability,[6]; first compound 0.08 µM,1.03
same,relative viability,[6]; first compound 0.8 µM,0.921
same,relative viability,[6]; first compound 2.53 µM,0.951
same,relative viability,[6]; first compound 8 µM,1.15
same,relative viability,[7]; first compound 0.08 µM,1.11
same,relative viability,[7]; first compound 0.8 µM,1.11
same,relative viability,[7]; first compound 2.53 µM,1.16
same,relative viability,[7]; first compound 8 µM,1.21
same,relative viability,[8]; first compound 0.08 µM,0.921
same,relative viability,[8]; first compound 0.8 µM,0.978
same,relative viability,[8]; first compound 2.53 µM,0.99
same,relative viability,[8]; first compound 8 µM,1.02
same,relative viability,[9]; first compound 0.08 µM,1.08
same,relative viability,[9]; first compound 0.8 µM,1.01
same,relative viability,[9]; first compound 2.53 µM,1.07
same,relative viability,[9]; first compound 8 µM,1.06
same,relative viability,[10]; first compound 0.08 µM,1.05
same,relative viability,[10]; first compound 0.8 µM,1.02
same,relative viability,[10]; first compound 2.53 µM,1.05
same,relative viability,[10]; first compound 8 µM,1.08
NCI-H1563,relative viability,[1]; 0.08 µM,1
same,relative viability,[1]; 0.8 µM,0.947
same,relative viability,[1]; 2.53 µM,1.07
same,relative viability,[1]; 8 µM,0.886
same,relative viability,[2]; first compound 0.08 µM,0.972
same,relative viability,[2]; first compound 0.8 µM,0.867
same,relative viability,[2]; first compound 2.53 µM,1.05
same,relative viability,[2]; first compound 8 µM,0.849
same,relative viability,[11]; first compound 0.08 µM,0.796
same,relative viability,[11]; first compound 0.8 µM,0.748
same,relative viability,[11]; first compound 2.53 µM,0.694
same,relative viability,[11]; first compound 8 µM,0.66
same,relative viability,[12]; first compound 0.08 µM,0.831
same,relative viability,[12]; first compound 0.8 µM,0.724
same,relative viability,[12]; first compound 2.53 µM,0.987
same,relative viability,[12]; first compound 8 µM,0.656
same,relative viability,[13]; first compound 0.08 µM,0.507
same,relative viability,[13]; first compound 0.8 µM,0.544
same,relative viability,[13]; first compound 2.53 µM,0.483
same,relative viability,[13]; first compound 8 µM,0.52
same,relative viability,[4]; first compound 0.08 µM,1.06
same,relative viability,[4]; first compound 0.8 µM,0.945
same,relative viability,[4]; first compound 2.53 µM,1.04
same,relative viability,[4]; first compound 8 µM,0.952
same,relative viability,[5]; first compound 0.08 µM,0.626
same,relative viability,[5]; first compound 0.8 µM,0.662
same,relative viability,[5]; first compound 2.53 µM,0.601
same,relative viability,[5]; first compound 8 µM,0.618
same,relative viability,[6]; first compound 0.08 µM,1.34
same,relative viability,[6]; first compound 0.8 µM,1.14
same,relative viability,[6]; first compound 2.53 µM,1.37
same,relative viability,[6]; first compound 8 µM,1.16
same,relative viability,[14]; first compound 0.08 µM,0.67
same,relative viability,[14]; first compound 0.8 µM,0.654
same,relative viability,[14]; first compound 2.53 µM,0.702
same,relative viability,[14]; first compound 8 µM,0.693
same,relative viability,[7]; first compound 0.08 µM,1.03
same,relative viability,[7]; first compound 0.8 µM,0.892
same,relative viability,[7]; first compound 2.53 µM,0.946
same,relative viability,[7]; first compound 8 µM,0.856
same,relative viability,[8]; first compound 0.08 µM,0.947
same,relative viability,[8]; first compound 0.8 µM,0.873
same,relative viability,[8]; first compound 2.53 µM,0.938
same,relative viability,[8]; first compound 8 µM,0.741
same,relative viability,[15]; first compound 0.08 µM,0.499
same,relative viability,[15]; first compound 0.8 µM,0.502
same,relative viability,[15]; first compound 2.53 µM,0.465
same,relative viability,[15]; first compound 8 µM,0.404
same,relative viability,[10]; first compound 0.08 µM,0.871
same,relative viability,[10]; first compound 0.8 µM,0.763
same,relative viability,[10]; first compound 2.53 µM,0.933
same,relative viability,[10]; first compound 8 µM,0.775
NCI-H1623,relative viability,[1]; 0.08 µM,1.03
same,relative viability,[1]; 0.8 µM,0.922
same,relative viability,[1]; 2.53 µM,1.01
same,relative viability,[1]; 8 µM,0.977
same,relative viability,[16]; first compound 0.08 µM,0.429
same,relative viability,[16]; first compound 0.8 µM,0.405
same,relative viability,[16]; first compound 2.53 µM,0.459
same,relative viability,[16]; first compound 8 µM,0.436
same,relative viability,[11]; first compound 0.08 µM,0.341
same,relative viability,[11]; first compound 0.8 µM,0.416
same,relative viability,[11]; first compound 2.53 µM,0.423
same,relative viability,[11]; first compound 8 µM,0.374
same,relative viability,[13]; first compound 0.08 µM,0.595
same,relative viability,[13]; first compound 0.8 µM,0.391
same,relative viability,[13]; first compound 2.53 µM,0.639
same,relative viability,[13]; first compound 8 µM,0.401
same,relative viability,[14]; first compound 0.08 µM,0.632
same,relative viability,[14]; first compound 0.8 µM,0.58
same,relative viability,[14]; first compound 2.53 µM,0.693
same,relative viability,[14]; first compound 8 µM,0.563
same,relative viability,[7]; first compound 0.08 µM,0.895
same,relative viability,[7]; first compound 0.8 µM,0.747
same,relative viability,[7]; first compound 2.53 µM,0.933
same,relative viability,[7]; first compound 8 µM,0.837
same,relative viability,[15]; first compound 0.08 µM,0.505
same,relative viability,[15]; first compound 0.8 µM,0.5
same,relative viability,[15]; first compound 2.53 µM,0.525
same,relative viability,[15]; first compound 8 µM,0.531

# — the supplement of paper PMC10307832
